Reference: publication PMC6182381, “Population Pharmacokinetics and Exposure-Response Relationships of Naldemedine” (Pharmaceutical Research, 2018)
Where two headings read alike, the source gives them in different places.

How the values were obtained:
[1] = test system: patients with chronic non-cancer pain and OIC; parameters: method as in PMID 28576452; conditions: cited from earlier work
[2] = test system: patients with chronic non-cancer pain and OIC; parameters: method as in PMID 28371937; conditions: Study 1107 V9221 (Phase 2b), cited from earlier work
[3] = test system: patients with chronic non-cancer pain and OIC; assay: SBM responder, phase 3 studies 1314 V9231 and 1315 V9232 (observed and PK/Efficacy logistic model); assay type: in vivo, human; conditions: for Predicted probability of SBM responder: Phase 3 model
Source text: (§1) Exposure-response analysis was used to evaluate the efficacy and safety data of the phase 2b and phase 3 studies ([2],[5]). The PK/Efficacy analysis included the subjects of the population PK analysis or in the placebo group, who also had efficacy data for the exposure-response analysis obtained from phase 2b and phase 3 studies (1107 V9221, 1314 V9231, and 1315 V9232). The PK/Safety analysis included the subjects of the population PK analysis or in the placebo group, who also had safety data for exposure-response analysis obtained from phase 2b and phase 3 studies (1107 V9221, 1314 V9231, and 1315 V9232).
(§2) The following efficacy variables were used to evaluate the exposure-response relationship. […] In the phase 3 studies (Study No. 1314 V9231 and 1315 V9232), an SBM responder was defined as having 9 positive response weeks or more out of the 12-weeks treatment period and 3 positive response weeks out of the last 4 weeks of the 12-weeks treatment period. A positive response week was defined as a week with both ≥3 SBMs and an increase of ≥1 SBM from the baseline. A subject with any insufficient response data was treated as a “non-responder”. The occurrence of treatment-emergent adverse events of gastrointestinal disorders as system organ class, which was the most frequently occurring type, was defined by the severity and assessed as safety variables.
(§3) No covariate was tested in the exposure-response analysis because no prognostic factors of the efficacy or safety were identified in the phase 2b and phase 3 studies ([2],[5]). Efficacy and safety data in Study No. 1314 V9231 and 1315 V9232 were combined because these studies were conducted as pivotal phase 3 studies using the same study design and were of the same treatment duration. The individual AUCss values for naldemedine were estimated by empirical Bayes estimation based on the population PK model. AUCss values of the subjects in the placebo group were treated as zero (0). For efficacy (responder or non-responder) and safety (occurrence of gastrointestinal disorders or not) variables, relationships to PK parameters were examined using the logistic model as shown in Eq. (3) with SAS (Version 9.2, SAS Institute).3 Probabilityefficacy or safety event=1/1+exp−a−b×PKparameter where a and b are the parameters to be estimated.

[4] = test system: patients with chronic non-cancer pain and OIC; assay: Adverse events / gastrointestinal disorders, phase 2b study 1107 V9221 (observed and PK/Safety logistic model); assay type: in vivo, human; conditions: for Gastrointestinal disorders, Mild / Gastrointestinal disorders, Moderate / Gastrointestinal disorders, Not_Reported / Gastrointestinal disorders, Severe: PK/safety population, 1107 V9221 (Phase 2b); for Predicted probability of gastrointestinal disorders: Phase 2b model; for Predicted probability of gastrointestinal disorders / Gastrointestinal disorders, Observation / Gastrointestinal disorders, Prediction: Moderate, Severe; for Gastrointestinal disorders, Observation / Gastrointestinal disorders, Prediction: Phase 2b
Source text: as §1, §2, §3

[5] = test system: patients with chronic non-cancer pain and OIC; assay: SBM responder, phase 2b study 1107 V9221 (observed and PK/Efficacy logistic model); assay type: in vivo, human; conditions: for SBM responder, Observation / SBM responder, Prediction: 1107V9221 (Phase 2b); for SBM Non_Responder frequency / SBM Responder frequency: PK/efficacy population, 1107 V9221 (Phase 2b); for Predicted probability of SBM responder: Phase 2b model
Source text: as §1, §2, §3

[6] = test system: patients with chronic non-cancer pain and OIC; parameters: method as in PMID 28576452; conditions: cited from earlier work; remark: listed apart in the source
[7] = test system: patients with chronic non-cancer pain and OIC; assay: Adverse events / gastrointestinal disorders, phase 3 studies 1314 V9231 and 1315 V9232 (observed and PK/Safety logistic model); assay type: in vivo, human; conditions: for Predicted probability of gastrointestinal disorders: Phase 3 model
Source text: as §1, §2, §3

[8] = parameters: method as in PMID 28466424, PMID 28960888; conditions: cited from earlier work
[9] = test system: patients with chronic non-cancer pain and OIC; parameters: method as in PMID 28371937; conditions: Phase 2b, cited from earlier work
[10] = 1314V9231 and 1315V9232 (Phase 3), 0.2 mg
[11] = PK/efficacy population, 1314 V9231 and 1315 V9232 (Phase 3), 0.2 mg
[12] = PK/safety population, 1314 V9231 and 1315 V9232 (Phase 3), 0.2 mg
[13] = Phase 3, Mild, Moderate, Severe, 0.2 mg
[14] = Phase 3, Moderate, Severe, 0.2 mg

Structure (SMILES): CC(C)(NC(=O)C1=C(O)[C@@H]2Oc3c(O)ccc4c3[C@@]23CCN(CC2CC2)[C@H](C4)[C@]3(O)C1)c1nc(-c2ccccc2)no1 [naldemedine]
- Treatment-related adverse events (patients) ([1]; Study 1314 V9231, 59 of 271 patients): 22%
- Treatment-related adverse events (patients) ([1]; Study 1315 V9232, 54 of 271 patients): 20%
- proportion of SBM responders ([2]; 0.1 mg): 52.5%
- proportion of SBM responders ([2]; 0.2 mg): 71.2%
- proportion of SBM responders ([2]; 0.4 mg): 66.7%
- predicted probability of SBM responders ([3]; 0.2 mg once daily, phase 2b and phase 3 studies): approximately 50%
- predicted probability of SBM responders ([3]; 0.2 mg, phase 3 studies 1314 V9231 and 1315 V9232): 49.9%
- SBM responder, Observation [3, 10]: 53.3
- SBM responder, Prediction [3, 10]: 49.9
- SBM Non_Responder frequency [3, 11]: 208 (46.7) Count (Percent)
- SBM Responder frequency [3, 11]: 237 (53.3) Count (Percent)
- Predicted probability of SBM responder ([3]; Dose: 0.1 mg): 0.433
- Predicted probability of SBM responder ([3]; Dose: 0.2 mg): 0.499
- Predicted probability of SBM responder ([3]; Dose: 0.4 mg): 0.630
- Gastrointestinal disorders, Mild ([4]; 0.1 mg): 1 (11.1) Count (Row percent)
- Gastrointestinal disorders, Moderate ([4]; 0.1 mg): 1 (11.1) Count (Row percent)
- Gastrointestinal disorders, Not_Reported ([4]; 0.1 mg): 7 (77.8) Count (Row percent)
- Gastrointestinal disorders, Severe ([4]; 0.1 mg): 0 (0.0) Count (Row percent)
- Gastrointestinal disorders, Mild ([4]; 0.2 mg): 1 (11.1) Count (Row percent)
- Gastrointestinal disorders, Moderate ([4]; 0.2 mg): 3 (33.3) Count (Row percent)
- Gastrointestinal disorders, Not_Reported ([4]; 0.2 mg): 5 (55.6) Count (Row percent)
- Gastrointestinal disorders, Severe ([4]; 0.2 mg): 0 (0.0) Count (Row percent)
- Gastrointestinal disorders, Mild ([4]; 0.4 mg): 2 (20.0) Count (Row percent)
- Gastrointestinal disorders, Moderate ([4]; 0.4 mg): 1 (10.0) Count (Row percent)
- Gastrointestinal disorders, Not_Reported ([4]; 0.4 mg): 7 (70.0) Count (Row percent)
- Gastrointestinal disorders, Severe ([4]; 0.4 mg): 0 (0.0) Count (Row percent)
- Predicted probability of gastrointestinal disorders ([4]; Mild, Dose: 0.1 mg): 0.195
- Predicted probability of gastrointestinal disorders ([4]; Mild, Dose: 0.2 mg): 0.254
- Predicted probability of gastrointestinal disorders ([4]; Mild, Dose: 0.4 mg): 0.403
- Predicted probability of gastrointestinal disorders ([4]; Dose: 0.1 mg): 0.078
- Predicted probability of gastrointestinal disorders ([4]; Dose: 0.2 mg): 0.101
- Predicted probability of gastrointestinal disorders ([4]; Dose: 0.4 mg): 0.165
- Gastrointestinal disorders, Observation ([4]; Mild, 0.1 mg): 22.2
- Gastrointestinal disorders, Prediction ([4]; Mild, 0.1 mg): 19.5
- Gastrointestinal disorders, Observation ([4]; Mild, 0.2 mg): 44.4
- Gastrointestinal disorders, Prediction ([4]; Mild, 0.2 mg): 25.4
- Gastrointestinal disorders, Observation ([4]; Mild, 0.4 mg): 30.0
- Gastrointestinal disorders, Prediction ([4]; Mild, 0.4 mg): 40.3
- Gastrointestinal disorders, Observation ([4]; 0.1 mg): 11.1
- Gastrointestinal disorders, Prediction ([4]; 0.1 mg): 7.8
- Gastrointestinal disorders, Observation ([4]; 0.2 mg): 33.3
- Gastrointestinal disorders, Prediction ([4]; 0.2 mg): 10.1
- Gastrointestinal disorders, Observation ([4]; 0.4 mg): 10.0
- Gastrointestinal disorders, Prediction ([4]; 0.4 mg): 16.5
- predicted probability of SBM responders ([5]; 0.2 mg, phase 2b study 1107 V9221): 52.7%
- SBM responder, Observation ([5]; 0.1 mg): 55.6
- SBM responder, Prediction ([5]; 0.1 mg): 47.4
- SBM responder, Observation ([5]; 0.2 mg): 66.7
- SBM responder, Prediction ([5]; 0.2 mg): 52.7
- SBM responder, Observation ([5]; 0.4 mg): 60.0
- SBM responder, Prediction ([5]; 0.4 mg): 63.0
- SBM Non_Responder frequency ([5]; 0.1 mg): 4 (44.4) Count (Percent)
- SBM Responder frequency ([5]; 0.1 mg): 5 (55.6) Count (Percent)
- SBM Non_Responder frequency ([5]; 0.2 mg): 3 (33.3) Count (Percent)
- SBM Responder frequency ([5]; 0.2 mg): 6 (66.7) Count (Percent)
- SBM Non_Responder frequency ([5]; 0.4 mg): 4 (40.0) Count (Percent)
- SBM Responder frequency ([5]; 0.4 mg): 6 (60.0) Count (Percent)
- Predicted probability of SBM responder ([5]; Dose: 0.1 mg): 0.474
- Predicted probability of SBM responder ([5]; Dose: 0.2 mg): 0.527
- Predicted probability of SBM responder ([5]; Dose: 0.4 mg): 0.630
- proportion of responders ([6]; Study 1314 V9231 (Phase 3)): 47.6%
- proportion of responders ([6]; Study 1315 V9232 (Phase 3)): 52.5%
- predicted probability of severe gastrointestinal disorders ([7]; 0.2 mg and 0.4 mg, phase 3 study): less than 3%
- predicted probability of severe gastrointestinal disorders ([7]; 0.2 mg once daily): less than 3%
- predicted probability of mild to severe gastrointestinal disorders ([7]; 0.2 mg, phase 3): 19.3%
- predicted probability of moderate to severe gastrointestinal disorders ([7]; 0.2 mg, phase 3): 8.3%
- predicted probability of severe gastrointestinal disorders ([7]; 0.2 mg, phase 3): 1.8%
- Gastrointestinal disorders, Mild [7, 12]: 52 (11.7) Count (Row percent)
- Gastrointestinal disorders, Moderate [7, 12]: 34 (7.6) Count (Row percent)
- Gastrointestinal disorders, Not_Reported [7, 12]: 351 (78.9) Count (Row percent)
- Gastrointestinal disorders, Severe [7, 12]: 8 (1.8) Count (Row percent)
- Gastrointestinal disorders, Observation [7, 13]: 21.1
- Gastrointestinal disorders, Prediction [7, 13]: 19.3
- Gastrointestinal disorders, Observation [7, 14]: 9.4
- Gastrointestinal disorders, Prediction [7, 14]: 8.3
- Gastrointestinal disorders, Observation ([7]; Phase 3, Severe, 0.2 mg): 1.8
- Gastrointestinal disorders, Prediction ([7]; Phase 3, Severe, 0.2 mg): 1.8
- Predicted probability of gastrointestinal disorders ([7]; Mild, Moderate, Severe, Dose: 0.1 mg): 0.172
- Predicted probability of gastrointestinal disorders ([7]; Mild, Moderate, Severe, Dose: 0.2 mg): 0.193
- Predicted probability of gastrointestinal disorders ([7]; Mild, Moderate, Severe, Dose: 0.4 mg): 0.242
- Predicted probability of gastrointestinal disorders ([7]; Moderate, Severe, Dose: 0.1 mg): 0.071
- Predicted probability of gastrointestinal disorders ([7]; Moderate, Severe, Dose: 0.2 mg): 0.083
- Predicted probability of gastrointestinal disorders ([7]; Moderate, Severe, Dose: 0.4 mg): 0.113
- Predicted probability of gastrointestinal disorders ([7]; Severe, Dose: 0.1 mg): 0.015
- Predicted probability of gastrointestinal disorders ([7]; Severe, Dose: 0.2 mg): 0.018
- Predicted probability of gastrointestinal disorders ([7]; Severe, Dose: 0.4 mg): 0.027
- time dependence of PK ([8]; AUC Day 1 vs AUCss Day 10, multiple dose study): time-independent
- dose proportionality of systemic exposure ([8]; dose range 0.1 mg to 100 mg): almost dose proportional
- time to reach steady state ([8]; multiple dose study, 3 mg, 10 mg and 30 mg, trough Days 2 to 10): ≤ 2 days
- Treatment-emergent adverse events ([9]; 0.1 mg): 66.1%
- Treatment-emergent adverse events ([9]; 0.2 mg): 67.2%
- Treatment-emergent adverse events ([9]; 0.4 mg): 78.6%
